Measured values from the NIST ThermoML archive (doi:10.1016/j.fluid.2015.12.032).
Numbers after ± are expanded uncertainties.

Details: 101.33 kPa, Liquid, Falling or rolling sphere viscometry

CCCC[N+]1(C)CCOCC1.N#C[C-](C#N)C#N [4-butyl-4-methylmorpholinium tricyanomethanide]
Details	viscosity [mPa·s]
288.15 K	500.4 ± 47
298.15 K	225.5 ± 17
308.15 K	118.4 ± 8
318.15 K	69.89 ± 4.4
328.15 K	44.14 ± 2.8
338.15 K	30.31 ± 1.9
348.15 K	21.9 ± 1.4
358.15 K	16.33 ± 1
368.15 K	12.77 ± 0.79
